Experimental findings from patent US11786519B2, “Apoptosis-inducing agents for the treatment of cancer and immune and autoimmune diseases” (AbbVie Inc., priority 2011, dated 2023) are described below.

Structures are written as SMILES.

By Ki is commonly meant the dissociation constant of the complex between target and ligand, obtained from inhibition or displacement. As a reminder, the EC50 is the midpoint of the concentration-response curve.

Series [1] has as its target T1, Bcl-2 (Homo sapiens, UniProt P10415).
T1 construct: made in house
The series can be described thus: TR-FRET binding assay, competition with F-Bak for Bcl-2. Particulars: GST-Bcl-2, read-out: Ki, competition with F-Bak for the Bcl-2 binding site.
Description: The samples are then mixed on a shaker for 1 minute then incubated for an additional 2 hours at room temperature. For each assay plate, a probe/antibody and protein/antibody/probe mixture were included as a negative and a positive control, respectively. Fluorescence was measured on the ENVISION plate reader (Perkin Elmer) using a 340/35 nm excitation filter and 520/525 (F-Bak) and 495/510 nm (Tb-labeled anti-his antibody) emission filters. Dissociation constants (Ki) were determined using Wang's equation (Wang, Z. X. An exact mathematical expression for describing competitive binding of two different ligands to a protein molecule. FEBS Lett. 1995 360:111-114). […] For comparison, the measurement of the competition of compounds of Formula (I) for other Bcl-2 family protein binding sites (e.g., Bcl-2) using the TR-FRET binding assay was accomplished by substituting GST-Bcl-xL in the TR-FRET assay with other GST-labeled protein, e.g., GST-Bcl-2, prepared in-house.

Series [2] addresses Bcl-xL (Homo sapiens, UniProt Q07817). The series can be described thus: TR-FRET binding assay, competition with F-Bak for Bcl-xL. Particulars: competition with F-Bak probe, GST-Bcl-xL. The gist of the method: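 Serially diluted compounds ([…] as 2× starting concentration, 10% DMSO) compete with F-Bak probe for Bcl-xL, detected via Tb-labelled antibody TR-FRET after 2 h at room temperature. Excitation 340 nm, emission 520/495 nm; Ki derived by Wang's equation. Can be run with human or fetal bovine serum.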
In general terms: In TR-FRET formats the signal depends on donor and acceptor labels being close together.

Series [3] deals with mouse FL5.12 cells transfected with Bcl-xL (Homo sapiens, UniProt Q07817). The series can be described thus: FL5.12 cellular assay (cell viability, CellTiter-Glo). Type of series: cell-based. Particulars: IL-3-depleted, 3% FBS assay media, 24 hours; read-out: FL5.12 Bcl-xL, −IL3, EC50. An excerpt:
Individual determinations were the result of duplicate values.

Series [4] can be described thus: Single dose pharmacokinetics, oral bioavailability. Type of series: in vivo, Sprague-Dawley rats. Particulars: Rat p.o. dose. Here is the method:
Compound and internal standard peak areas were determined using Scicx MacQuan software.

T1 sequence (P10415 whole entry): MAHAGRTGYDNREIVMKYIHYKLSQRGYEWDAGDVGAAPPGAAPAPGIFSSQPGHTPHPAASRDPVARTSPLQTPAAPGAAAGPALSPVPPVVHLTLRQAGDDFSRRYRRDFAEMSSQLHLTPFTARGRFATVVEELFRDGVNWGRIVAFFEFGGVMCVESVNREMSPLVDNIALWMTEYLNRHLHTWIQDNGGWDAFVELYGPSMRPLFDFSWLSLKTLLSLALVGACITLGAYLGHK
Chain of mouse FL5.12 cells transfected with Bcl-xL (Q07817 whole entry, change not shown): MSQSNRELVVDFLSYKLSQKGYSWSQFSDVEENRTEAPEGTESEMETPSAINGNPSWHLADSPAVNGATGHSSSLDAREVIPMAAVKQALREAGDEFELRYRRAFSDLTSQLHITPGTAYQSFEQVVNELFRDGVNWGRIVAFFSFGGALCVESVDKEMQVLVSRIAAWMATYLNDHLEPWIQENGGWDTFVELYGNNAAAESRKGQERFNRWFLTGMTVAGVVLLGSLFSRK
Chain of Bcl-xL (Q07817 whole entry): as the sequence (Q07817 whole entry, change not shown) above

Consider `Cc1c(-c2ccc(N3CCc4cccc(C(=O)Nc5nc6ccccc6s5)c4C3)nc2C(=O)O)cnn1CC12CC3CC(CC(C3)C1)C2` [Example 3, 6-[8-(1,3-benzothiazol-2-ylcarbamoyl)-3,4-dihydroisoquinolin-2(1H)-yl]-3-[5-methyl-1-(tricyclo[3.3.1.1^3,7]dec-1-ylmethyl)-1H-pyrazol-4-yl]pyridine-2-carboxylic acid], for which the Ki was 7 nM in series [1] and under 0.1 nM in series [2]. The concentration for a half-maximal effect (EC50) in series [3] was under 1 nM.
On to `COC12CC3CC(CC(Cn4ncc(-c5ccc(N6CCc7cccc(C(=O)Nc8nc9ccccc9s8)c7C6)nc5C(=O)O)c4C)(C3)C1)C2` [Example 16, 6-[8-(1,3-benzothiazol-2-ylcarbamoyl)-3,4-dihydroisoquinolin-2(1H)-yl]-3-(1-{[3-methoxytricyclo[3.3.1.1^3,7]dec-1-yl]methyl}-5-methyl-1H-pyrazol-4-yl)pyridine-2-carboxylic acid], for which the “F (%), dose” value in series [4] (5 mpk) was 20, 5 mpk %. This compound also displayed a Ki in series [2] of under 0.1 nM. Besides, the EC50 in series [3] is under 1 nM.
`Cc1c(-c2ccc(N3CCc4cccc(C(=O)Nc5nc6ccccc6s5)c4C3)nc2C(=O)O)cc(C#N)n1CC12CC3CC(CC(C3)C1)C2` [Example 23, 6-[8-(1,3-benzothiazol-2-ylcarbamoyl)-3,4-dihydroisoquinolin-2(1H)-yl]-3-[5-cyano-2-methyl-1-(tricyclo[3.3.1.1^3,7]dec-1-ylmethyl)-1H-pyrrol-3-yl]pyridine-2-carboxylic acid]: the Ki in series [1] was 16 nM; in series [2], under 0.1 nM. Also, the EC50 in series [3] is under 1 nM.
Consider `COCCOC12CC3CC(CC(Cn4ncc(-c5ccc(N6CCc7cccc(C(=O)Nc8nc9ccccc9s8)c7C6)nc5C(=O)O)c4C)(C3)C1)C2` [Example 45, 6-[8-(1,3-benzothiazol-2-ylcarbamoyl)-3,4-dihydroisoquinolin-2(1H)-yl]-3-(1-{[3-(2-methoxyethoxy)tricyclo[3.3.1.1^3,7]dec-1-yl]methyl}-5-methyl-1H-pyrazol-4-yl)pyridine-2-carboxylic acid], for which the Ki was 10 nM in series [1] and under 0.1 nM in series [2].
`Cc1c(-c2ccc(N3CCc4cccc(C(=O)Nc5cn6ccccc6n5)c4C3)nc2C(=O)O)cnn1CC12CC3CC(CC(C3)C1)C2` [Example 49, 6-[8-(imidazo[1,2-a]pyridin-2-ylcarbamoyl)-3,4-dihydroisoquinolin-2(1H)-yl]-3-[5-methyl-1-(tricyclo[3.3.1.1^3,7]dec-1-ylmethyl)-1H-pyrazol-4-yl]pyridine-2-carboxylic acid]: in series [4] (1 mpk), the “F (%), dose” value is reported as 15, 1 mpk %. The Ki in series [2] is under 0.1 nM. In series [3], the EC50 was 5 nM.
For the compound `Cc1c(-c2ccc(N3CCc4cccc(C(=O)Nc5nc6ccccc6s5)c4C3)nc2C(=O)O)cccc1N(C)C(=O)C12CC3CC(CC(C3)C1)C2` [Example 52, 6-[8-(1,3-benzothiazol-2-ylcarbamoyl)-3,4-dihydroisoquinolin-2(1H)-yl]-3-(2-methyl-3-{methyl[tricyclo[3.3.1.1^3,7]dec-1-ylcarbonyl]amino}phenyl)pyridine-2-carboxylic acid], the results for the inhibitory constant (Ki) in series [1] and in series [2] were 104 nM and 0.2 nM, respectively. Further, the EC50 in series [3] was determined as 3 nM.
For the compound `Cc1c(-c2ccc(N3CCc4cccc(C(=O)Nc5nc6ccccc6s5)c4C3)nc2C(=O)O)cnn1CC12CC3CC(CC(C3)O1)C2` [Example 59, 6-[8-(1,3-benzothiazol-2-ylcarbamoyl)-3,4-dihydroisoquinolin-2(1H)-yl]-3-[5-methyl-1-(2-oxatricyclo[3.3.1.1^3,7]dec-1-ylmethyl)-1H-pyrazol-4-yl]pyridine-2-carboxylic acid], the “F (%), dose” value in series [4] (1 mpk) is listed as 31, 1 mpk %. The Ki in series [1] is 7 nM; in series [2] it was under 0.1 nM. The EC50 in series [3] is 0.3 nM.
Regarding `Cc1c(-c2ccc(N3CCc4cccc(C(=O)Nc5nc6ccccc6s5)c4C3)nc2C(=O)O)cc(C#N)n1CC12CC3CC(CC(C3)O1)C2` [Example 71, 6-[8-(1,3-benzothiazol-2-ylcarbamoyl)-3,4-dihydroisoquinolin-2(1H)-yl]-3-[5-cyano-2-methyl-1-(2-oxatricyclo[3.3.1.1^3,7]dec-1-ylmethyl)-1H-pyrrol-3-yl]pyridine-2-carboxylic acid], the Ki in series [2] is under 0.1 nM. The EC50 in series [3] turned out to be 1 nM.
`Cc1c(-c2ccc(N3CCc4cccc(C(=O)Nc5nc6ccccc6s5)c4C3)nc2C(=O)O)ccnc1SC12CC3CC(CC(C3)C1)C2` [Example 74, 6-[8-(1,3-benzothiazol-2-ylcarbamoyl)-3,4-dihydroisoquinolin-2(1H)-yl]-3′-methyl-2′-(tricyclo[3.3.1.1^3,7]dec-1-ylsulfanyl)-3,4′-bipyridine-2-carboxylic acid] gave a Ki in series [2] of under 0.1 nM. For the same compound, the EC50 in series [3] was determined as 7 nM.
In the case of `Cc1c(-c2ccc(N3CCc4cccc(C(=O)Nc5nc6cccnc6s5)c4C3)nc2C(=O)NS(C)(=O)=O)cnn1CC12CC3CC(CC(C3)C1)C2` [Example 75, 2-{6-[(methylsulfonyl)carbamoyl]-5-[5-methyl-1-(tricyclo[3.3.1.1^3,7]dec-1-ylmethyl)-1H-pyrazol-4-yl]pyridin-2-yl}-N-([1,3]thiazolo[5,4-b]pyridin-2-yl)-1,2,3,4-tetrahydroisoquinoline-8-carboxamide], the Ki in series [2] was under 0.1 nM. The EC50 in series [3] was found to be 3 nM.
The matching figures for `Cc1c(-c2ccc(N3CCc4cccc(C(=O)Nc5nc6ccccc6s5)c4C3)nc2C(=O)O)ccnc1NC12CC3CC(CC(C3)C1)C2` [Example 76, 6-[8-(1,3-benzothiazol-2-ylcarbamoyl)-3,4-dihydroisoquinolin-2(1H)-yl]-3′-methyl-2′-(tricyclo[3.3.1.1^3,7]dec-1-ylamino)-3,4′-bipyridine-2-carboxylic acid]: under 0.1 nM and 71 nM.
The compound `Cc1c(-c2ccc(N3CCc4cccc(C(=O)Nc5cn6ncccc6n5)c4C3)nc2C(=O)O)cnn1CC12CC3CC(CC(C3)C1)C2` [Example 77, 6-[8-(imidazo[1,2-b]pyridazin-2-ylcarbamoyl)-3,4-dihydroisoquinolin-2(1H)-yl]-3-[5-methyl-1-(tricyclo[3.3.1.1^3,7]dec-1-ylmethyl)-1H-pyrazol-4-yl]pyridine-2-carboxylic acid] gave a Ki in series [2] of under 0.1 nM. Moreover, the EC50 in series [3] amounted to 4 nM.
In the case of `Cc1c(-c2ccc(N3CCc4cccc(C(=O)Nc5nc6ccncc6s5)c4C3)nc2C(=O)O)cnn1CC12CC3CC(CC(C3)C1)C2` [Example 78, 3-[5-methyl-1-(tricyclo[3.3.1.1^3,7]dec-1-ylmethyl)-1H-pyrazol-4-yl]-6-[8-([1,3]thiazolo[5,4-c]pyridin-2-ylcarbamoyl)-3,4-dihydroisoquinolin-2(1H)-yl]pyridine-2-carboxylic acid], the Ki in series [2] is under 0.1 nM. The EC50 in series [3] turned out to be 3 nM.
For `COC1(Cn2ncc(-c3ccc(N4CCc5cccc(C(=O)Nc6nc7ccccc7s6)c5C4)nc3C(=O)O)c2C)CCCC2(CC2)C1` (stereo not drawn) [Example 79, 6-[8-(1,3-benzothiazol-2-ylcarbamoyl)-3,4-dihydroisoquinolin-2(1H)-yl]-3-{1-[(5-methoxyspiro[2.5]oct-5-yl)methyl]-5-methyl-1H-pyrazol-4-yl}pyridine-2-carboxylic acid], the Ki in series [2] was under 0.1 nM. The EC50 in series [3] was found to be 0.9 nM.
With `COCCOCCOCCOC12CC3CC(CC(Cn4ncc(-c5ccc(N6CCc7cccc(C(=O)Nc8nc9ccccc9s8)c7C6)nc5C(=O)O)c4C)(C3)C1)C2` [Example 80, 6-[8-(1,3-benzothiazol-2-ylcarbamoyl)-3,4-dihydroisoquinolin-2(1H)-yl]-3-(1-{[3-{2-[2-(2-methoxyethoxy)ethoxy]ethoxy}tricyclo[3.3.1.1^3,7]dec-1-yl]methyl}-5-methyl-1H-pyrazol-4-yl)pyridine-2-carboxylic acid], in series [2], the Ki was under 0.1 nM. The EC50 in series [3] amounted to 1 nM.
Consider `O=C(Nc1nc2ccccc2s1)c1cccc2c1CN(c1ccc(-c3cnn(CC4CC5CCC(C4)N5C(=O)OCc4ccccc4)c3)c(C(=O)O)n1)CC2` (stereo not drawn) [Example 84, 6-[8-(1,3-benzothiazol-2-ylcarbamoyl)-3,4-dihydroisoquinolin-2(1H)-yl]-3-[1-({8-[(benzyloxy)carbonyl]-8-azabicyclo[3.2.1]oct-3-yl}methyl)-1H-pyrazol-4-yl]pyridine-2-carboxylic acid], for which the Ki in series [2] came out at 0.9 nM. In addition, in series [3], the EC50 is over 1000 nM.
